Measured values from patent US20260166045A1, “COMBINATION THERAPY COMPRISING GSPT1-DIRECTED MOLECULAR GLUE DEGRADERS AND PI3K/AKT/mTOR PATHWAY INHIBITORS” (Monte Rosa Therapeutics, Inc., priority 2022, published 2026).

Assays:
MCF7 xenografts = assay: MCF7 cell-derived xenograft (CDX) in vivo combination study; set-up: species or system BALB/c nude mice; conditions: compound 1-1 10 mg/kg; for Δ TV ratio to vehicle group (A/C, B/C, (AB)/C): day 28, Clarke method; for Δ TV (delta tumor volume): p.o. qd for 28 days, average of four tumors
Method: […] (0.36 mg) pellets (Innovative Research of America Cat. No.: SE-121, pellet size: 3.0 mm) were implanted 2-3 days before cell inoculation.
(§1) Compound 1-1 was formulated every day freshly as a solution in 5% DMSO/95% (30% w/v HPβCD in water). This formulation was also used as vehicle control. Everolimus was formulated as a suspension in 1% MC (400 cps), which was prepared every 3 days.
(§2) Body weights were measured at the same time.
An approximation of drug interactions was made using the method described by Clarke (Clarke et al. 1997. Breast Cancer Res Treat. 46(2-3):255-78). This was applied to […] and can estimate interactions from limited data. In short, for compound A, B, or the combination AB (with control group C), antagonism is predicted when (AB)/C>(A/C)×(B/C), an additive effect is predicted when (AB)/C=(A/C)×(B/C), and synergistic interaction is predicted to occur when (AB)/C<(A/C)×(B/C). Calculations in Table 10B indicate that the interaction of everolimus and compound 1-1 in the MCF7 CDX model is synergistic.
17β-Estradiol (0.36 mg) pellets (Innovative Research of America Cat. No.: SE-121, pellet size: 3.0 mm) were implanted 2-3 days before cell inoculation.
(§3) Compound 1-1 was formulated every day freshly as a solution in 5% DMSO/95% (30% w/v HPβCD in water). This formulation was also used as vehicle control. Alpelisib was formulated as a solution in 20% captisol+80% water (pH adjusted to 4), which was prepared every week.

CAL51 xenografts = assay: CAL51 cell-derived xenograft (CDX) in vivo combination study; set-up: species or system SCID Beige mice; conditions: compound 1-1 3 mg/kg; for antitumor effect vs vehicle (tumor volume): day 21, ANOVA with post hoc Tukey's test; for antitumor effect vs vehicle (tumor volume) / Δ TV ratio to vehicle group (A/C, B/C, (AB)/C): p.o. qd; for Δ TV ratio to vehicle group (A/C, B/C, (AB)/C): day 21, Clarke method; for Δ TV (delta tumor volume): p.o. qd for 21 days, average of four tumors
Method: as §1, §2, §3

NCI-H1836 cell line = assay: CTG viability, 11x11 concentration matrix, Loewe synergy (SCLC); conditions: inhibitor combined with compound 1-1, 11x11 matrix, 72 hours
Method: (§4) Cells were cultured in the media recommended by the supplier.
(§5) On the day before compound addition, cells were seeded in 384-well-plates (white with clear flat bottom) at the densities indicated in Table 6 in 40 μL of growth medium. The next day, compounds were dispensed from 10 mM stocks using a HP D300 dispenser according to the concentration matrices described above. For each cell line, the compound concentration matrices were dispensed twice as side-by-side duplicates on one 384-well-plate. In addition, each plate contained 14 wells with only growth medium and 44 wells with cells treated with DMSO alone to calculate the average background and maximal signals, respectively. The final DMSO concentration was normalized to 0.2% across the plates. Plates were then incubated for 72 hours. CellTiter-Glo® Luminescent Cell Viability Assay (CTG, Promega G7570) reagent was prepared according to the manufacturer's instructions. Plates were equilibrated to room temperature for approximately 30 minutes, 25 μL CTG reagent was added to each well and plates were mixed on an orbital shaker for 10 minutes to allow for cell lysis. After further incubation for 20 minutes at room temperature, the clear bottoms of the plates were pasted with white back seal and luminescence was read on an EnVision plate reader (measurement time 0.1 seconds).

NCI-H1876 cell line = assay: as above; conditions: inhibitor combined with compound 1-1, 11x11 matrix, 72 hours
Method: as §4, §5

NCI-H209 cell line = assay: as above; conditions: inhibitor combined with compound 1-1, 11x11 matrix, 72 hours
Method: as §4, §5

NCI-H526 cell line = assay: as above; conditions: inhibitor combined with compound 1-1, 11x11 matrix, 72 hours
Method: as §4, §5

NCI-H69 cell line = assay: as above; conditions: inhibitor combined with compound 1-1, 11x11 matrix, 72 hours
Method: as §4, §5

DOHH-2 cell line = assay: CTG viability, 11x11 concentration matrix, Loewe synergy (lymphoma); conditions: inhibitor combined with compound 1-1, 11x11 matrix, 72 hours
Method: as §4, §5

DB cell line = assay: as above; conditions: inhibitor combined with compound 1-1, 11x11 matrix, 72 hours
Method: as §4, §5

WSU-DLCL2 cell line = assay: as above; conditions: inhibitor combined with compound 1-1, 11x11 matrix, 72 hours
Method: as §4, §5

RAJI cell line = assay: as above; conditions: inhibitor combined with compound 1-1, 11x11 matrix, 72 hours
Method: as §4, §5

SU-DHL-6 cell line = assay: as above; conditions: inhibitor combined with compound 1-1, 11x11 matrix, 72 hours
Method: as §4, §5

MM.1S cell line = assay: CTG viability, 11x11 concentration matrix, Loewe synergy (multiple myeloma); conditions: inhibitor combined with compound 1-1, 11x11 matrix, 72 hours
Method: as §4, §5

OPM-2 cell line = assay: as above; conditions: inhibitor combined with compound 1-1, 11x11 matrix, 72 hours
Method: as §4, §5

U266B1 cell line = assay: as above; conditions: inhibitor combined with compound 1-1, 11x11 matrix, 72 hours
Method: as §4, §5

RPMI 8226 cell line = assay: as above; conditions: inhibitor combined with compound 1-1, 11x11 matrix, 72 hours
Method: as §4, §5

KMS-34 cell line = assay: as above; conditions: inhibitor combined with compound 1-1, 11x11 matrix, 72 hours
Method: as §4, §5

[1] = tested on: PDX models LU5188, LU5247, LU5236, LU1508, LU5215, LU5137; assay: Lung cancer patient-derived xenograft (PDX) in vivo combination study; set-up: species or system BALB/c nude or NOD/SCID mice; conditions: six lung cancer PDX models; everolimus 5 mg/kg qd p.o.
Method: • Models: The study was conducted at Crown Bioscience with the PDX models LU5188 (small cell lung neuroendocrine carcinoma), LU5247 (non-small cell lung adenocarcinoma), LU5236 (small cell lung neuroendocrine carcinoma), LU1508 (small cell lung neuroendocrine carcinoma), LU5215 (small cell lung neuroendocrine carcinoma), and LU5137 (large cell neuroendocrine carcinoma). • Animals: BALB/c nude (LU1508) or NOD/SCID (all other models) female mice, 5-7 weeks old, weighing approximately 22-25 g, were purchased from certified vendors.
Tumor Inoculation: Fresh tumor tissues was harvest from tumor bearing mice, cut into small pieces (approximately 2-3 mm in diameter) and was kept in RPMI1640 cell culture medium at 4° C.). Lidocaine cream was applied to the PDX fragment inoculation site 1 hour before the operation. In addition, hair was removed from NOD/SCID mice before fragment implantation. Each animal was disinfected at the inoculation site with alcohol swap, PDX tumor fragments were inserted subcutaneously at the upper right dorsal flank with a trocar. The trocar was withdrawn any air bubbles under the skin were extruded.
Both compounds were administered orally.
as §2

Row | SMILES | Mean Loewe synergy score, NCI-H1836 (NCI-H1836 cell line) | Mean Loewe synergy score, NCI-H1876 (NCI-H1876 cell line) | Mean Loewe synergy score, NCI-H209 (NCI-H209 cell line) | Mean Loewe synergy score, NCI-H526 (NCI-H526 cell line) | Mean Loewe synergy score, NCI-H69 (NCI-H69 cell line) | Mean Loewe synergy score, DOHH2 (DOHH-2 cell line) | Mean Loewe synergy score, DB (DB cell line) | Mean Loewe synergy score, WSU-DLCL2 (WSU-DLCL2 cell line) | Mean Loewe synergy score, RAJI (RAJI cell line) | Mean Loewe synergy score, SUDHL6 (SU-DHL-6 cell line) | Mean Loewe synergy score, MM.1S (MM.1S cell line) | Mean Loewe synergy score, OPM-2 (OPM-2 cell line) | Mean Loewe synergy score, U266B1 (U266B1 cell line) | Mean Loewe synergy score, RPMI 8226 (RPMI 8226 cell line) | Mean Loewe synergy score, KMS-34 (KMS-34 cell line) | further results
1 | Cc1nc(NC(=O)N2CCC[C@H]2C(N)=O)sc1-c1ccnc(C(C)(C)C(F)(F)F)c1 [Alpelisib, (2S)-1-N-[4-methyl-5-[2-(1,1,1-trifluoro-2-methylpropan-2-yl)pyridin-4-yl]-1,3-thiazol-2-yl]pyrrolidine-1,2-dicarboxamide] | 1.69 | 1.64 | 1.49 | 3.7 | 5.05 | 1.59 | −2.27 | −2.69 | 2.05 | −6.28 | 3.44 | −2.51 | 0.13 | 0.9 | 7.85 | anti-tumor effect compared to vehicle (MCF7 xenografts; day 28, ANOVA with post hoc Tukey's test, alpelisib 50 mg/kg, p.o. qd): significant anti-tumor effect; Δ TV ratio to vehicle group (A/C, B/C, (AB)/C) (MCF7 xenografts; alpelisib 50 mg/kg, p.o. qd): 0.15; Δ TV (delta tumor volume) (MCF7 xenografts; day 28, alpelisib 50 mg/kg, combination 50 + 10 mg/kg): 91 mm^3; antitumor effect vs vehicle (tumor volume) (CAL51 xenografts; alpelisib 20 mg/kg): neither alpelisib nor compound 1-1 produced a statistically significant antitumor effect; Δ TV ratio to vehicle group (A/C, B/C, (AB)/C) (CAL51 xenografts; alpelisib 20 mg/kg): 0.76; Δ TV (delta tumor volume) (CAL51 xenografts; day 21, alpelisib 20 mg/kg, combination 20 + 3 mg/kg): 425 mm3
2 | NC1(C(=O)N[C@@H](CCO)c2ccc(Cl)cc2)CCN(c2ncnc3[nH]ccc23)CC1 [Capivasertib, 4-amino-N-[(1S)-1-(4-chlorophenyl)-3-hydroxypropyl]-1-(7H-pyrrolo[2,3-d]pyrimidin-4-yl)piperidine-4-carboxamide] | 1.9 | 0.7 | 0.85 | 4.3 | 7.38 | 2.89 | 0.29 | 0.95 | 2.97 | −1.92 | 2.63 | −1 | 1.76 | 4.81 | 7.48 | –
3 | CO[C@H]1C[C@@H]2CC[C@@H](C)[C@@](O)(O2)C(=O)C(=O)N2CCCC[C@H]2C(=O)O[C@H]([C@H](C)C[C@@H]2CC[C@@H](OCCO)[C@H](OC)C2)CC(=O)[C@H](C)/C=C(\C)[C@@H](O)[C@@H](OC)C(=O)[C@H](C)C[C@H](C)/C=C/C=C/C=C/1C [Everolimus, (1R,9S,12S,15R,16E,18R,19R,21R,23S,24E,26E,28E,30S,32S,35R)-1,18-dihydroxy-12-[(2R)-1-[(1S,3R,4R)-4-(2-hydroxyethoxy)-3-methoxycyclohexyl]propan-2-yl]-19,30-dimethoxy-15,17,21,23,29,35-hexamethyl-11,36-dioxa-4-azatricyclo[30.3.1.0^4,9]hexatriaconta-16,24,26,28-tetraene-2,3,10,14,20-pentone] | 1.58 | −0.29 | 6.14 | 6.49 | 9.46 | 6.48 | 5.81 | 8.29 | 14.66 | 12.05 | 6.7 | 5.3 | 4.16 | 20.75 | 16.19 | antitumor effect vs vehicle (tumor volume) (MCF7 xenografts; day 28, ANOVA with post hoc Tukey's test, everolimus 2 mg/kg, p.o. qd): statistically significant antitumor effects; Δ TV ratio to vehicle group (A/C, B/C, (AB)/C) (MCF7 xenografts; everolimus 2 mg/kg, p.o. qd): 0.26; Δ TV (delta tumor volume) (MCF7 xenografts; day 28, everolimus 2 mg/kg, combination 2 + 10 mg/kg): 164 mm3; antitumor effect vs vehicle (tumor volume) (CAL51 xenografts; everolimus 2 mg/kg): did not significantly impede tumor growth; Δ TV ratio to vehicle group (A/C, B/C, (AB)/C) (CAL51 xenografts; everolimus 2 mg/kg): 0.87; Δ TV (delta tumor volume) (CAL51 xenografts; day 21, everolimus 2 mg/kg, combination 2 + 3 mg/kg): 491 mm3; body weight loss [1]: Body weight loss was caused by everolimus dosing
4 | Nc1cc(C(F)(F)F)c(-c2cc(N3CCOCC3)nc(N3CCOCC3)n2)cn1 [buparlisib, 5-(2,6-dimorpholin-4-ylpyrimidin-4-yl)-4-(trifluoromethyl)pyridin-2-amine] | 1.64 | 0.017 | 0.78 | −0.21 | 4.09 | 1.11 | 1.26 | −3.1 | 1.34 | −2.5 | 1.48 | −1.38 | −0.19 | 3.57 | 5.94 | –
